# Data published in a melting point compilation (Tetko et al.; mined from patent text by program, amines drawn as free bases though some values may be those of a salt).
row,SMILES,melting point [°C]
1,Cc1cccc(NC(=O)NC2N=C(c3ccccc3F)c3ccccc3N(Cc3ncccc3C(N)=O)C2=O)c1 (racemic),203
2,C(#Cc1ccc2[nH]ccc2c1)CCN1CCC(Cc2ccccc2)CC1,165 to 166
3,CC1(C)CCCC[C@H]1[C@H](O)c1ccc(F)cc1,105 to 108
4,N=C(NCC1(c2ccccc2)CC1)NN=Cc1c(Cl)cccc1Cl,136 to 138
5,CC(=O)S[C@H]1CNC(=O)C1,114 to 116
6,O=C1NC(=O)C2c3c([nH]c4ccc(Cl)cc34)-c3[nH]c4ccc(Cl)cc4c3C12 (centres undefined),> 300
7,N#Cc1cc(O)c(O)c(O)c1,219
8,CCc1nn2c(c1Oc1cc(Cl)cc(Cl)c1)CN(Cc1ccc(C#N)cc1)CC2,149 to 150
9,CS(=O)(=O)Nc1nc(CN2CCC(c3c[nH]c4ccccc34)CC2)cs1,215 to 217
10,O=Cc1c2cccc(Cl)c2cc2c(Cl)cccc12,218 to 220
11,CCCn1cnc2c(=O)[nH]c(N)nc21,> 300
12,Cc1cc(=O)n(C)c2c1C(=O)CC(c1ccsc1)C2 (centres undefined),156 to 157
13,CCCCCCCCCCCCCCCCCCCCOC(=O)Cl,33 to 34
14,O=C(Nc1ccc(Cl)cc1)NC1N=C(c2ccccc2)c2ccccc2N(CC(=O)OCc2ccccc2)C1=O (centres undefined),220 to 222
15,COc1cc(OC)c(OC)cc1CN1CCc2cc(OCc3ccccc3)c(OC)cc2C1,110 to 111
16,COc1cc(OC)n2nc(NS(=O)(=O)c3c(Cl)cccc3Cl)nc2n1,211 to 213
17,N#CNC(=NC1CCN(CCCc2ccccc2)CC1)N1CCc2ccccc2C1,122 to 124
18,Cn1cc(C=CC(=O)NO)c([N+](=O)[O-])n1,172 to 174
19,Nc1ccc(C23CC(C2)C(=O)NC3=O)cc1,265
20,COC(=O)c1cc2c(nc1C(=O)OC)SCC2,102 to 104
21,Nc1nc(=O)c2ncn(C3OC4COP(=O)(O)OC4C3O)c2[nH]1 (centres undefined),91.6 to 93.7

row,SMILES,melting point [°C]
1,N#Cc1c(Cl)nc2ccc(S(=O)(=O)Cl)cc2c1Cl,168 to 171
2,O=C1NC(=O)C(c2cn3c4c(cccc24)CC3)C1c1c[nH]c2ccccc12 (centres undefined),144 to 148
3,Clc1ccc(CNc2nc(-c3cccc(Cl)n3)nc3ccccc23)cc1,187 to 190
4,CCN1c2ncccc2C(=S)N(C)c2cccnc21,157 to 158
5,CC(C)(C)C(O)(Cn1cncn1)C(Cl)=CBr (centres undefined),45 to 48
6,COc1ccc(S(=O)(=O)c2c(-c3ccccc3)oc3ccccc23)cc1,146 to 148
7,Cc1cc(CCCCCOc2c(Cl)cc(-c3nc(C)c(C)s3)cc2Cl)on1,57 to 58
8,c1ccc(-c2[nH]c3ccccc3c2C2CCNCC2)cc1,187 to 188
9,Nc1nc(Cl)cc(-c2ccco2)n1,133 to 140
10,CC(=NOCC(=O)O)c1ccc(Cl)c(Cl)c1,128 to 129
11,CCOC(=O)C1CCN(c2nc(CCl)c(C)s2)CC1,76 to 77
12,O=C(N[C@H]1CC[C@H](CCN2CCC(c3cccc4c3CCO4)CC2)CC1)C1CCC1,197
13,COc1c(C(C)(C)C)cc(C=O)c(O)c1Br,123 to 124
14,O=C(NCC12CC3CC(CC(C3)C1)C2)c1cc(CCCNCCCO)cnc1Cl,105 to 107
15,COc1ccccc1Oc1c(O)nc(O)nc1O,202 to 204
16,O=CC(=Cc1ccccc1OCc1ccc([N+](=O)[O-])cc1)C(C=O)=Cc1ccccc1OCc1ccc([N+](=O)[O-])cc1,116 to 117
17,C#CCOc1cc(Oc2ccc(Cl)c(Cl)c2)ncn1,109
18,CC(=O)N1CCC(c2ccc(S(=O)(=O)Cl)cc2)CC1,133 to 134
19,O=C(COc1cc(-c2cccs2)nc2ccccc12)N1CCOCC1,198
20,Cc1c(O)cc(N)cc1C(=O)O,> 250

# Results, then the molecule that gave them:
row,melting point [°C],SMILES
1,180,CSc1ccc(N2CCOC2=O)cc1[N+](=O)[O-]
2,233 to 235,Cc1ccc(C(=O)Nc2c[nH]nc2C(=O)NCCO)cn1
3,234,CCCOc1cc2c(cc1-c1cc(-c3ccc(C(=O)O)cc3)ccc1-c1ccccc1)C(C)(C)CCC2(C)C
4,212 to 214,CCOC(=O)c1cnc(SC)nc1Nc1ccc2cn[nH]c2c1
5,112 to 119,COc1cc(NC(=O)c2cccc(CSc3cnccn3)c2)cc(OC)c1OC
6,301,O=C(Nc1ccc(C(=O)Nc2nnc(-c3cc(Cl)cc(Cl)c3O)s2)cc1)c1ccccc1
7,149 to 150,Cc1cc(C)cc(C(=O)c2[nH]c(=O)[nH]c(=O)c2C(C)C)c1
8,144 to 145,CN(C(=O)OC[C@@]1(C)Cn2cc([N+](=O)[O-])nc2O1)c1ccc(OC(F)(F)F)cc1
9,167 to 168,CCCC(CCC)n1[nH]c(Cc2c(C)n(C(=O)c3ccc(Cl)cc3)c3ccc(OC)cc23)cc1=O
10,96 to 97,CCCCCCCCCCCCc1ccc(S(=O)(=O)Nc2nnc(C(=O)OCC)s2)cc1
11,161 to 162,CCOC(=O)c1ccc(C(C(N)=O)C(Cc2ccccc2)c2ccccc2N2CCCCC2)cc1 (centres undefined)
12,111 to 113,CC(C)(C)c1ccccc1NC(=O)C(=O)O
13,312,COc1ccccc1-n1c(=O)[nH]c2c(C(N)=O)nc(-c3cccc4[nH]cnc34)nc21
14,113 to 114,C/C(=C\c1ccc(C(=O)OCc2ccccc2)cc1)c1ccc2c(c1)C(C)(C)CCC2(C)C
15,197 to 198,C#CCCOc1cc(/C=C/C(=O)Nc2ccccc2C(=O)O)ccc1OC
16,63 to 67,O=C1C(CCO)Oc2ccccc2N1Cc1cccc(Cl)c1 (centres undefined)
17,128 to 129,COc1cc2c(c3c1OC(C)(C)C3)C(c1ccccc1)=NC(C)(C)C2
18,144 to 146,Cc1oc(-c2ccc(C(F)(F)F)cc2)nc1CCOc1ccc(CN(O)C(N)=O)cc1F
19,155 to 156,Cn1cnc(=O)c(-c2cccc(C(F)(F)F)c2)c1
20,173 to 174,CCCCc1nc2c(N)nc3ccc(OCc4ccccc4)cc3c2n1CCCCNC(=O)c1ccccc1

row,melting point [°C],SMILES
1,198 to 200,CCOCc1nc2c(N)nc3ccccc3c2n1CCCCC(N)=O
2,235 to 237,CCOC(=O)c1cn2c(=O)n(CC)c3ccccc3n2c1=O
3,169,CNC(=O)N(O)Cc1ccc(-c2ccccc2)s1
4,84.5 to 86,N#CCc1c(C(F)(F)F)cccc1C(F)(F)F
5,154 to 155,COc1cccc([C@H]2O[C@H](CC(=O)Nc3ccsc3C(=O)O)C(=O)N(CC(C)(C)CO)c3ccc(Cl)cc32)c1OC
6,155 to 157,COc1cc(OC)nc(NC(=O)NS(=O)(=O)c2ccccc2C(=O)O)n1
7,41 to 43,CCCCCCCCCCCCCCCCSCc1ccc(N(C)C)cc1
8,71 to 72,COc1ccc2c(c1)C(=O)C(Cc1ccccc1)CO2 (centres undefined)
9,> 300,CCOC(=O)C1=C(c2ccc(-n3c(C)nc4cnccc43)cc2)NC(=O)NC1c1ccccc1Cl (centres undefined)
10,196,COC(=O)c1ccccc1S(=O)(=O)NC(=O)Nc1nc(N(C)C)c2nc(C)c(C)nc2n1
11,189 to 192,CN1C(=O)C(C(=O)Nc2ccc(F)cc2)S(=O)(=O)c2ccccc21 (centres undefined)
12,70 to 71,CCCN1C(=O)N2C[C@@H](Cc3ccccc3)N=C2c2[nH]c([C@H]3CC[C@H](CN)CC3)nc21
13,234 to 236,CC(C)Oc1cc(OC(C)C)c2c(=O)cc(Sc3ccc(O)cc3)oc2c1
14,217 to 219,O=C(O)CCCc1cc2cc(Cl)ccc2n1S(=O)(=O)c1cccc2cccnc12
15,230,O=C(O)C1CC(O)CN1C(=O)c1ccc2c(c1)OCO2 (centres undefined)
16,233 to 234,CNC(=O)Nc1nccc(Oc2ccc3c(C(=O)Nc4ccc(F)c(C(F)(F)F)c4)cccc3c2)n1
17,222 to 223,Cc1nsc(NC(=O)C(C)c2ccc(O)c(N)c2)c1Cl (centres undefined)
18,194 to 198,C[C@H](NC(=O)c1c(N)cccc1F)C(=O)O
19,112 to 113,O=C(COc1ccc(OCc2ccccc2)cc1)NCCCn1ccnc1
20,113 to 114,Cc1cccc(C2(O)c3cc(NC(=O)CC(C)(C)C)c(C)c(C)c3OC2(C)C)c1 (centres undefined)

row,melting point [°C],SMILES
1,179,O=C(O)C1=CS[C@@H]2/C(=C/c3ccc4c(c3)N(Cc3ccccc3)C(=O)c3ccccc3O4)C(=O)N12
2,256 to 258,COc1ccc(-n2cc(C(=O)O)c(=O)c3cc(F)c(F)cc32)cc1
3,73 to 74.5,O=C(c1ccccc1)c1cc(Cl)ccc1OCCCl
4,320,NC(=O)c1nc(-c2cnc3nc[nH]c3c2)nc2c1[nH]c(=O)n2-c1ccccc1C(F)(F)F
5,188 to 189,CSc1ccc(CC(=O)NC(NC(=NC#N)Nc2cccc3ncccc23)C(C)(C)C)cc1 (centres undefined)
6,126 to 129,FC(F)(F)c1cccc(Oc2cc(Oc3cccc(C(F)(F)F)c3)nc(Br)n2)c1
7,169,CC(=O)Oc1ccc(C(C)(c2ccc(OC(C)=O)cc2)c2ccc(OC(C)=O)cc2)cc1
8,177 to 179,Cc1cc(=O)n(-c2ccc(Cl)cc2)cn1
9,120 to 121,C=CCOC1(C(F)(F)F)CN(C2CC2)C(=O)Nc2ccc(Cl)cc21 (centres undefined)
10,255 to 256,O=C(O)c1ccc(Oc2ccc3c(c2)CCN(C2CCN(C4CCC4)CC2)C3=O)cc1
11,145 to 149,CCCCOc1ncc(C(C)=O)cc1-c1nn2c(CC)nc(CN3CCOCC3)c2c(=O)[nH]1
12,121 to 123,O=c1ccc(C(F)(F)F)cn1Cc1ccc([N+](=O)[O-])cc1
13,112 to 114,CCCC[C@H](NC(=O)[C@H](CC(C)C)NC(=O)c1ccc(F)c(C(F)(F)F)c1)C(=O)CSCc1ccco1
14,166 to 167,Cc1ccc(Cn2cnc3c(-c4ccco4)ncnc32)cc1
15,149 to 151,CC(SC(=O)c1ccccc1)C(=O)c1ccccc1NCC(=O)O (centres undefined)
16,151 to 153,COc1ccc(C[C@@H](CO)NC(=O)c2ccnc(Br)c2)cc1OC
17,122,CCCc1nc(SC(F)F)c(C(=O)O)n1Cc1ccc(-c2ccccc2S(=O)(=O)NC(=O)NCc2ccc(F)cc2)cc1
18,150 to 152,Cc1ncsc1CCSc1ccnc(CSc2nc3ccccc3[nH]2)c1C
